Results published in US20110028566A1, “COMPOSITIONS AND PRODUCTS CONTAINING CYCLOALIPHATIC DIOL ANTIMICROBIAL AGENTS AND METHODS OF USING THE COMPOSITIONS AND PRODUCTS” (EASTMAN CHEMICAL COMPANY, priority 2009, published 2011).
Entries after “also recorded” stand apart in the source; their conditions may differ.

Legend:
C. albicans = assay: MIC comparison of 1,1- and 1,4-CHDM, 96-well plates; format: cell-based; conditions: for MIC Day 1: 24 H; for MIC Day 2: 48 H; for MIC Day 3: 72 H
Description: (§1) The antimicrobial activities of 1,4-cyclohexanedimethanol (1,4-CHDM) and 1,1-cyclohexanedimethanol (1,1-CHDM) have been determined. […] MICs were individually calculated for three consecutive days with both 1,1-cyclohexanedimethanol and the 31% cis:69% trans mixture of 1,4-cyclohexanedimethanol. Both compounds were evaluated against a panel of five strains of microorganisms.
(§2) Strains P. aeruginosa, C. albicans, E. coli, A. niger and S. aureus were purchased from the American Type Culture Collection (Manassas, Va.). NUNC flat bottom polystyrene 96 well microtiter plates (NUNC Cat# 269787), and 17×100 mm culture tubes (VWR Cat# 60818-703) were purchased from VWR International, LLC (West Chester, Pa.). Eastman CHDM-D90 and 1,1-CHDM (>99.7% by GC and verified by NMR) were provided by Eastman Chemical Company (Kingsport, Tenn.). All bacterial cultures were grown in BD BBL trypticase soy broth, and all fungal cultures were grown in sabourand dextrose broth purchased from VWR International, LLC (West Chester, Pa.). Absorbance measurements were taken with a TECAN GENios Pro microplate reader.
(§3) A small loopful of inoculum was transferred from a freshly streaked agar plate of each strain to 5 ml of sterile media in a 17×100 mm culture tube. The bacteria were incubated for 20-28 hours and C. albicans for 44-52 hours.
(§4) Stock solutions were prepared for each isomer in the corresponding growth media at a concentration of 5% w/v (1,4-CHDM) or 2.25% w/v (1,1-CHDM). Serial dilutions were prepared with a dilution ratio of 1:1.3333 such that one log range was covered with nine dilutions.
(§5) Two-hundred microliters of each CHDM concentration was transferred into 4 wells of a sterile 96-well plate. Four extra wells of the highest concentration were filled for the uninoculated high-level controls. Eight additional wells were filled with only sterile broth to serve as negative and positive controls. The last well of each CHDM isomer dilution was left uninoculated to serve as controls for background turbidity associated with test compounds. Plates with bacteria or C. albicans were inoculated with 2 μl of seed culture for final concentration of roughly 10^6 CFU/ml for the bacteria and 10^5 CFU/ml for the C. albicans. Plates with A. niger were inoculated with 2 μl of spore suspension prepared above.
(§6) Each plate was covered and incubated at the appropriate temperature and turbidity as a measure of cell density was determined via absorbance measurement at 612 nm using a microplate reader. Measurements were taken at 24, 48 and 72 hours for each plate. The raw data was exported into an Excel spreadsheet and the MIC values were determined and expressed as wt %. The absorbance of each inoculated CHDM well was retrieved by first subtracting out the average reading for each uninoculated well, then by comparison to a positive threshold to determine positive or negative status for growth. The positive threshold was calculated by multiplication of the average absorbance for the inoculated media-only wells by 0.05. The MIC was determined as the lowest test concentration resulting in all three replicate wells displaying values below the positive threshold.

E. coli = assay: as above; format: cell-based; conditions: for MIC Day 1: 24 H; for MIC Day 2: 48 H; for MIC Day 3: 72 H
Description: as §1, §2, §3, §4, §5, §6

P. aeruginosa = assay: as above; format: cell-based; conditions: for MIC Day 1: 24 H; for MIC Day 2: 48 H; for MIC Day 3: 72 H
Description: as §1, §2, §3, §4, §5, §6

S. aureus = assay: as above; format: cell-based; conditions: for MIC Day 1: 24 H; for MIC Day 2: 48 H; for MIC Day 3: 72 H
Description: as §1, §2, §3, §4, §5, §6

A. niger = assay: as above; format: cell-based; conditions: for MIC Day 1: 24 H; for MIC Day 2: 48 H; for MIC Day 3: 72 H
Description: as §1, §2
A. niger was cultured on sabourand dextrose agar plates until a heavy concentration of black spores were visibly apparent. Spores were harvested from the plate by suspension in 3 ml of sabourand dextrose broth utilizing a sterile plastic spreader and sterile transfer pipette.
as §4, §5, §6

[1] = tested on: Aspergillus niger ATCC 16404; assay: MIC determination and synergy testing (Kull synergy index), microplate; format: cell-based; conditions: A. niger; plate 154C; day 3; MP and CHDM
Description: (§7) The test cultures are listed in Table 7 along with the incubation temperatures used for growth and minimum inhibitory concentration (MIC) testing. […] C. albicans was cultured in Sabouraud dextrose broth (SDB) for approximately 44-52 hours for preparation of inoculum. A. niger was cultured on Sabouraud dextrose agar (SDA) for 3-4 days until there was confluent growth and visible spore formation. Spores were harvested from the SDA plates by flooding the surface of the plate with 5-10 mL of phosphate-buffered saline (PBS) and gently spreading the liquid across the surface of the plate with a sterile T-shaped plastic spreader (Copan Diagnostics) until there was a well-mixed suspension of spores. The resulting spore suspension was collected using a serological pipette and stored at 2-8° C. until use.
(§8) Inoculum concentration was determined by dilution plating of the cultures or spore suspension. A serial dilution in PBS was made to 10^−8 for the bacterial cultures or 10^−5 for the fungal cultures. Fifty or 100 μL of the final dilution was spread on two Trypticase-soy agar (TSA) plates for bacteria or two SDA plates for fungi. After 24 to 48 hours plates were counted and the concentrations used in each experiment were calculated.
The A. niger spore suspensions were concentrated to a level of 1-2×10^8 spores/mL by centrifugation and resuspension in a portion of the resulting supernatant.
(§9) The antimicrobial agents tested for synergy along with the respective diluents and working stock solution concentrations are shown below. For determination of MIC ranges, individual antimicrobial agent stock solutions were added to sterile medium to yield the highest level test concentrations, and then serially diluted in the medium to prepare the range of test concentrations. For synergy testing individual test concentrations were prepared in sterile medium, and then blended to form the desired combinations.
(§10) MICs were determined using a high-throughput microplate method. Individual antimicrobial agents were added to TSB (pH 7.3) for bacterial testing or SDB (pH 5.6) for fungal testing at the highest concentration to be tested. A serial dilution series was prepared at a dilution ratio of 1:1.3333 such that a one log range was covered in nine dilutions. Two-hundred microliters of the diluted antimicrobial agents were dispensed into four wells each of a sterile, 96-well, flat-bottom microplate (Nalge Nunc International). Four additional wells of the highest concentration were dispensed to serve as uninoculated high-level controls. Eight additional wells containing only broth medium were also prepared, four to serve as negative controls and four as positive controls. Three wells of each antimicrobial agent dilution were inoculated with one of the test strains in Table 7. The final well of each antimicrobial agent dilution was left uninoculated to serve as a control (and means of compensating) for any absorbance/turbidity due to the test compounds.
Microplates were inoculated using the cultures or spore suspensions prepared as described above. The S. aureus cultures were used undiluted, while the E. coli and P. aeruginosa cultures were used either undiluted or after a 1:2 dilution in sterile TSB. The C. albicans cultures were used either undiluted or following a 2-fold concentration by centrifugation. One of two means of inoculation was used to deliver a final concentration of approximately 10^5 colony-forming units (CFU)/mL of C. albicans, 10^5 spores/mL of A. niger, or 10^6 CFU/mL of bacteria. The primary method used a stainless steel pin replicator (Nalge Nunc International) mounted on a hand-operated bench-top press (Schmidt Technology Corporation) fitted with a custom-built microplate holder to dispense one microliter of each inoculum from a “master” plate containing 50-100 μL of culture into the wells of the test plate. The pin replicator was sterilized before and between inoculations by immersing in ethanol and flaming. […]

[2] = tested on: Pseudomonas aeruginosa ATCC 27853; assay: as above; format: cell-based; conditions: MP: MIC alone (QB) or conc. in combination with CHDM (b); plate 146E; day 1
Description: as §7, §8, §9, §10
(§11) Microplates were inoculated using the cultures or spore suspensions prepared as described above. The S. aureus cultures were used undiluted, while the E. coli and P. aeruginosa cultures were used either undiluted or after a 1:2 dilution in sterile TSB. The C. albicans cultures were used either undiluted or following a 2-fold concentration by centrifugation. One of two means of inoculation was used to deliver a final concentration of approximately 10^5 colony-forming units (CFU)/mL of C. albicans, 10^5 spores/mL of A. niger, or 10^6 CFU/mL of bacteria. The primary method used a stainless steel pin replicator (Nalge Nunc International) mounted on a hand-operated bench-top press (Schmidt Technology Corporation) fitted with a custom-built microplate holder to dispense one microliter of each inoculum from a “master” plate containing 50-100 μL of culture into the wells of the test plate. The pin replicator was sterilized before and between inoculations by immersing in ethanol and flaming. The alternative method of inoculation was by directly pipetting 20 μL of a 1:20 dilution of each culture or spore suspension into the appropriate wells of the test plates.

[3] = tested on: Staphylococcus aureus ATCC 25923; assay: as above; format: cell-based; conditions: MP: MIC alone (QB) or conc. in combination with CHDM (b), plate 166D
Description: as §7, §8, §9, §10, §11

Aspergillus niger = assay: Test for adequate preservation in skin cream formulation (microorganism counts); format: cell-based; conditions: skin cream emulsion pH 6.75; concentration in label
Description: (§12) A test for adequate preservation was carried out in accordance with the European Pharmacopea (6.0) and United States Pharmacopea (5.1). The testing consisted of the inoculation of a skin cream formulation serving as an emulsion substrate. The skin cream formulation having a pH of 6.75 was as follows: […]
(§13) This skin cream was the emulsion substrate, which formed the base for all further experimentation.
(§14) For Examples 3.1 through 3.10, 390.0 g cream were weighed into a 600-ml beaker. The cream was stirred at room temperature while adding the ingredients specified in Table 51. Each sample was stirred for 2 hours, then placed in the refrigerator until inoculated.
(§15) For Examples 3.11 and 3.12, 179.4 g cream were weighed into a 400-ml beaker. The cream was stirred at room temperature while adding the specified ingredients.
(§16) The samples of Examples 3.1 through 3.10 were challenged with specific organisms (see Table 51) to produce a contamination of between 1.0×10^5 cfu/g and 1.0×10^6 cfu/g. The actual inoculation counts resulting from these challenges were immediately determined by diluting in sterile buffered water and (spread plate method) plating for enumeration.
(§17) Challenge organisms were prepared in Mueller-Hinton broth, allowed to grow for 72 hours at 35° C.+/−2° C., centrifuged at 2500 rpm for 5 minutes, and the supernatant broth was removed. The microbial pellet was then re-diluted with sterile buffered water to a turbidity that matched previous 1.0×10^8 cfu/g concentrations of that organism's specific growth curve.
(§18) The test emulsions were maintained within a specific temperature range optimal for the organisms; 35° C.+/2° C. for the bacteria and 22° C.+/−2° C. for the fungi, for the first three days. They were kept at ambient room temperature for the subsequent time periods.
(§19) Subculture samples of approximately 1 gram were taken for counts at 7, 14, and 30 days and incubated under optimal conditions and nutrition for no less than 5 days. Subcultures were diluted 1:2, 1:10, 1:100, . . . , 1:10,000 and plated using the spread plate method onto Plate Count Agar and onto SAB Dextrose Agar for the Candida and Aspergillus species; and incubated as follows: 35° C.+/−2° C. for the Plate Count Agar and 22° C.+/−2° C. for the SAB Dextrose plates of Candida albicans and Aspergillus niger. Negative results were not reported before 7 days incubation, and counts were performed after no less than 5 days incubation. Because of the high viscosity of the test emulsion, at least a 1:2 dilution was required to perform the spread plate subcultures. 0-30 counts represent a 1 to 2 dilution, numbers […] a 1:10 dilution; and the rest represent dilutions of 1:100, 1:1000, or 1:10,000. […]

Candida albicans = assay: as above; format: cell-based; conditions: skin cream emulsion pH 6.75; concentration in label
Description: as §12, §13, §14, §15, §16, §17, §18, §19

[4] = Solubility in aqueous growth media; format: physicochemical
Text: Final results have been summarized below in Table 59.

[5] = tested on: panel of five strains of microorganisms; assay: MIC comparison of 1,1- and 1,4-CHDM (Example 6), statements over the panel; format: cell-based; conditions: MIC at 24, 48 and 72 hours
Description: as §1
Strains P. aeruginosa, C. albicans, E. coli, A. niger and S. aureus were purchased from the American Type Culture Collection (Manassas, Va.). […] Absorbance measurements were taken with a TECAN GENios Pro microplate reader. […]
as §6, with “Measurements were taken at 24, 48 and 72 hours for each plate.” left out

SMILES | MIC Day 1 (C. albicans) [wt %] | MIC Day 2 (C. albicans) [wt %] | MIC Day 3 (C. albicans) [wt %] | MIC Day 1 (E. coli) [wt %] | MIC Day 2 (E. coli) [wt %] | MIC Day 3 (E. coli) [wt %] | MIC Day 1 (P. aeruginosa) [wt %] | MIC Day 2 (P. aeruginosa) [wt %] | MIC Day 3 (P. aeruginosa) [wt %] | MIC Day 1 (S. aureus) [wt %] | MIC Day 2 (S. aureus) [wt %] | MIC Day 3 (S. aureus) [wt %] | MIC Day 1 (A. niger) [wt %] | MIC Day 2 (A. niger) [wt %] | MIC Day 3 (A. niger) [wt %] | other results
OCC1CCC(CO)CC1 (stereo not shown) [1,4 CHDM] | 3.75 | 4.99 | >5.0 | 1.58 | 1.58 | 1.58 | 1.58 | 1.58 | 2.11 | 3.75 | 3.75 | 3.75 | >5.0 | 3.75 | 3.75 | –
COC(=O)c1ccc(O)cc1 [MP, Methylparaben, reference compound] | – | – | – | – | – | – | – | – | – | – | – | – | – | – | – | QB/b: concentration of MP (MIC alone, or in the combination at an inhibitory concentration) [1]: 0.050 weight percent; SI (synergy index) [1]: 1.00; QB/b [2]: 0.14; QB/b ([3]; day 1): 0.23; QB/b ([3]; day 2): 0.23; Antimicrobial activity against Aspergillus niger in skin cream (in words) (Aspergillus niger): not at this low concentration; Antimicrobial activity against Candida albicans in skin cream (in words) (Candida albicans): not at this low concentration
OCC1(CO)CCCCC1 [1,1-CHDM, 1,1-cyclohexanedimethanol] | – | – | – | – | – | – | – | – | – | – | – | – | – | – | – | Solubility [4]: ≤ 2.25 % (w/v); Antimicrobial efficacy (MIC) compared with 1,4-CHDM (in words) [5]: significant improvement in efficacy over 1,4-CHDM; also recorded: lower MIC values; also recorded: improved efficacy over 1,4-CHDM; Antimicrobial efficacy (MIC) compared with 1,4-CHDM (in words) ([5]; listed as 1,1-cyclohexanedimethanol): measurable increase in antimicrobial efficacy over that of 1,4-cyclohexanedimethanol; also recorded: Antimicrobial efficacy increased against four of the five test organisms
OCC1(CO)CCCCC1 [1,1 CHDM] | 2.25 | 2.25 | 2.25 | 1.26 | 1.26 | 1.26 | 1.26 | 1.26 | 1.26 | 2.25 | 2.25 | 2.25 | >2.25 | >2.25 | >2.25 | –
